Test results: patent publication US9029389B2 (Institut Pasteur Korea, priority 2011, dated 2015)

Legend:
Human 5-lipoxygenase = biological target: T1, Human 5-lipoxygenase (Homo sapiens, UniProt P09917); experiment: Activity of compounds against 5-LO enzyme (LTB4 measurement and/or fluorescence method); format: biochemical; conditions: for inhibition at 10 µM: 5-LO, single concentration of 10 uM in duplicate; for IC50: 6 or 11 point dose response in duplicate
T1 construct: purchased Cayman 60402; host or cells: insect cells
T1 sequence (P09917 1-674): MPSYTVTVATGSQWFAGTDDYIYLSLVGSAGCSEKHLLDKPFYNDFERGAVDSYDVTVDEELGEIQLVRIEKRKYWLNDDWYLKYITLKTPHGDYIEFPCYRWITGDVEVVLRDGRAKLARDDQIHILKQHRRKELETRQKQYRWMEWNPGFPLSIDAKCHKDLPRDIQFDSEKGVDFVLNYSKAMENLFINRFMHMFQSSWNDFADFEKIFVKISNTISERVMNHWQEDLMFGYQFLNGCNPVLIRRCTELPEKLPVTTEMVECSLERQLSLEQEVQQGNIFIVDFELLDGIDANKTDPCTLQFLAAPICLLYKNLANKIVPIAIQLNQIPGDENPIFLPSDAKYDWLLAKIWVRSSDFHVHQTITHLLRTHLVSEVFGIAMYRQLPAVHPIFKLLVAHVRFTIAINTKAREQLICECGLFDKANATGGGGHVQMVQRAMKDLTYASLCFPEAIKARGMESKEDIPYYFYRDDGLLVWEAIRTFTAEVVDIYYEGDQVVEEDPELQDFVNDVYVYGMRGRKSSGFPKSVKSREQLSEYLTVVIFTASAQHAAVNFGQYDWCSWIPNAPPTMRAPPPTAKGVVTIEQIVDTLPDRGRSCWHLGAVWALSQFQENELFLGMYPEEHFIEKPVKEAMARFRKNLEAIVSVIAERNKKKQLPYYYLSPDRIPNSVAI
Outline: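 Two read-outs: LTB4 measured by EIA and/or LC/MS/MS with LTB4-d4 standard after 15 min RT compound preincubation with insect-cell 5-LO and a 5 min 37 °C reaction on 3 uM arachidonic acid (0.1 mM ATP, pH 7.4). The room-temperature fluorescence format used 20 uM H2DCFDA, 100 uM ATP, 3 uM arachidonic acid, 5 min; IC50 from 6/11-point curves.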

Compound | melting point | inhibition at 10 µM (Human 5-lipoxygenase) [%] | IC50 (Human 5-lipoxygenase) [µM]
CCc1nc2c(OC(F)F)cccn2c1C(=O)NCc1ccc(N2CCOCC2)cc1 [compound 279, 8-(Difluoromethoxy)-2-ethyl-N-(4-morpholinobenzyl)imidazo[1,2-a]pyridine-3-carboxamide] | 163 °C | < 40 | 
CCc1nc2ccc(Cl)cn2c1-c1nc(Cc2ccc(Oc3ccc(F)cc3)cc2)no1 [compound 289, 5-(6-Chloro-2-ethylimidazo[1,2-a]pyridin-3-yl)-3-(4-(4-fluorophenoxy)benzyl)-1,2,4-oxadiazole] | 129.9 °C | < 40 | 
CCc1nc2cc(C(F)(F)F)ccn2c1C(=O)NCc1ccc(N2CCOCC2)cc1 [compound 290, 2-Ethyl-N-(4-morpholinobenzyl)-7-(trifluoromethyl)imidazo[1,2-a]pyridine-3-carboxamide] | 174.1 °C | < 40 | 
CCc1nc2ccc(Cl)cn2c1C(=O)NCc1ccc(N2CCC(C(N)=O)CC2)cc1 [compound 291, N-(4-(4-Carbamoylpiperidin-1-yl)benzyl)-6-chloro-2-ethylimidazo[1,2-a]pyridine-3-carboxamide] | 257.5 °C | < 40 | 
CCc1nc2cc(Cl)ccn2c1C(=O)NCc1ccc(N2CCC(C(N)=O)CC2)cc1 [compound 292, N-(4-(4-Carbamoylpiperidin-1-yl)benzyl)-7-chloro-2-ethylimidazo[1,2-a]pyridine-3-carboxamide] | 244 °C | < 40 | 
CCc1nc2cc(Cl)ccn2c1C(=O)NCc1ccc(N2CCC(c3ccc(Cl)cc3)CC2)cc1 [compound 297, 7-Chloro-N-(4-(4-(4-chlorophenyl)piperidin-1-yl)benzyl)-2-ethylimidazo[1,2-a]pyridine-3-carboxamide] | 177 °C | 40 to 69 | 
CCc1nc2ccc(Cl)cn2c1C(=O)NCc1ccc2oc(C3CCCCC3)nc2c1 [compound 298, 6-Chloro-N-((2-cyclohexylbenzo[d]oxazol-5-yl)methyl)-2-ethylimidazo[1,2-a]pyridine-3-carboxamide] | 169.7 °C | > 69 | 1 to 20
CCc1nc2cc(Cl)ccn2c1C(=O)NCc1ccc2oc(C3CCCCC3)nc2c1 [compound 299, 7-Chloro-N-((2-cyclohexylbenzo[d]oxazol-5-yl)methyl)-2-ethylimidazo[1,2-a]pyridine-3-carboxamide] | 163 °C | > 69 | < 1
CCc1nc2ccc(Cl)cn2c1C(=O)NCc1ccc(N2CCOCC2)c(Cl)c1 [compound 302, 6-Chloro-N-(3-chloro-4-morpholinobenzyl)-2-ethylimidazo[1,2-a]pyridine-3-carboxamide] | 175.5 °C | < 40 | 
CCc1nc2cc(Br)ccn2c1C(=O)NCc1ccc(N2CCN(c3ccc(F)cc3)CC2)cc1 [compound 304, 7-Bromo-2-ethyl-N-(4-(4-(4-fluorophenyl)piperazin-1-yl)benzyl)imidazo[1,2-a]pyridine-3-carboxamide] | 214.6 °C | > 69 | 1 to 20
CCc1nc2cc(-c3cccnc3)ccn2c1C(=O)NCc1ccc(N2CCOCC2)cc1 [compound 305, 2-Ethyl-N-(4-morpholinobenzyl)-7-(pyridin-3-yl)imidazo[1,2-a]pyridine-3-carboxamide] | 208.5 °C | < 40 | 
CCc1nc2ccc(Cl)cn2c1C(=O)NCc1ccc(N2CCC(O)(c3ccc(F)cc3)CC2)cc1 [compound 306, 6-Chloro-2-ethyl-N-(4-(4-(4-fluorophenyl)-4-hydroxypiperidin-1-yl)benzyl)imidazo[1,2-a]pyridine-3-carboxamide] | 173.5 °C | 40 to 69 | 
CCc1nc2ccc(Cl)cn2c1C(=O)NC1CCN(Cc2ccc(OC(F)(F)F)cc2)CC1 [compound 309, 6-Chloro-2-ethyl-N-(1-(4-(trifluoromethoxy)benzyl)piperidin-4-yl)imidazo[1,2-a]pyridine-3-carboxamide] | 157 to 158 °C | 40 to 69 | 1 to 20

Results, then the compound that gave them:

melting point | inhibition at 10 µM (Human 5-lipoxygenase) [%] | IC50 (Human 5-lipoxygenase) [µM] | Compound
238 °C | 40 to 69 | 1 to 20 | CCc1nc2c[n+]([O-])ccn2c1C(=O)NCc1ccc(-c2ccc(Cl)cc2)cc1 [compound 310, 3-(((4′-Chloro-[1,1′-biphenyl]-4-yl)methyl)carbamoyl)-2-ethylimidazo[1,2-a]pyrazine 7-oxide]
216.2 to 220.7 °C | 40 to 69 |  | CCc1nc2ccc(Cl)cn2c1C(=O)NCc1ccc(C2CCN(C(=O)Cc3ccc(F)cc3)CC2)cc1 [compound 327, 6-chloro-2-ethyl-N-(4-(1-(2-(4-fluorophenyl)acetyl)piperidin-4-yl)benzyl)imidazo[1,2-a]pyridine-3-carboxamide]
> 142.3 °C (dec.) | < 40 |  | CCc1nc2ccc(Cl)cn2c1C(=O)NCc1cccc(N(C)Cc2ccc(OC(F)(F)F)cc2)c1 [compound 352, 6-chloro-2-ethyl-N-(3-(methyl(4-(trifluoromethoxy)benz)amino)benzyl)imidazo[1,2-a]pyridine-3-carboxamide]
> 142.7 °C (dec.) | < 40 |  | CCc1nc2ccc(Cl)cn2c1C(=O)NCc1cccc(OCc2ccc(OC(F)(F)F)cc2)c1 [compound 353, 6-chloro-2-ethyl-N-(3-((4-(trifluoromethoxy)benzyl)oxy)benzyl)imidazo[1,2-a]pyridine-3-carboxamide]
135.5 to 136.4 °C | < 40 |  | CCc1nc2ccc(Cl)cn2c1C(=O)NCc1cccc(N2CCC(c3ccc(OC(F)(F)F)cc3)CC2)c1 [compound 354, 6-chloro-2-ethyl-N-(3-(4-(4-(trifluoromethoxy)phenyl)piperidin-1-yl)benzyl)imidazo[1,2-a]pyridine-3-carboxamide]
> 198.8 °C (dec.) | < 40 |  | CCc1nc2ccc(Cl)cn2c1C(=O)NCc1cccc(CC(=O)Nc2ccc(F)cc2)c1 [compound 355, 6-chloro-2-ethyl-N-(3-(2-((4-fluorophenyl)amino)-2-oxoethyl)benzyl)imidazo[1,2-a]pyridine-3-carboxamide]
> 168 °C (dec.) | 40 to 69 |  | CCc1nc2ccc(Cl)cn2c1C(=O)NCc1cccc(N2CCN(c3ccc(OC(F)(F)F)cc3)CC2)c1 [compound 356, 6-chloro-2-ethyl-N-(3-(4-(4-(trifluoromethoxy)phenyl)piperazin-1-yl)benzyl)imidazo[1,2-a]pyridine-3-carboxamide]
132.2 to 133 °C | < 40 |  | CCc1nc2ccc(Cl)cn2c1C(=O)NCc1ccc(CC2CCOCC2)cc1 [compound 358, 6-chloro-2-ethyl-N-(4-((tetrahydro-2H-pyran-4-yl)methyl)benzyl)imidazo[1,2-a]pyridine-3-carboxamide]
> 125.9 °C (dec.) | < 40 |  | CCc1nc2cc(Cl)ccn2c1C(=O)NCc1ccc(CC2CCOCC2)cc1 [compound 359, 7-chloro-2-ethyl-N-(4-((tetrahydro-2H-pyran-4-yl)methyl)benzyl)imidazo[1,2-a]pyridine-3-carboxamide]
126.3 to 127.2 °C | 40 to 69 |  | CCc1nc2ccc(Cl)cn2c1C(=O)NCc1cccc(N2CCC(Oc3ccc(OC(F)(F)F)cc3)CC2)c1 [compound 360, 6-chloro-2-ethyl-N-(3-(4-(4-(trifluoromethoxy)phenoxy)piperidin-1-yl)benzyl)imidazo[1,2-a]pyridine-3-carboxamide]
> 220 °C | < 40 |  | CCc1nc2ccc(Cl)cn2c1C(=O)NCc1cc2cc(Cl)ccc2s1 [compound 361, 6-chloro-N-((5-chlorobenzo[b]thiophen-2-yl)methyl)-2-ethylimidazo[1,2-a]pyridine-3-carboxamide]
> 133.7 °C (dec.) | < 40 |  | CCc1nc2ccccn2c1C(=O)NCc1ccc(C2CCOCC2)cc1 [compound 362, 2-ethyl-N-(4-(tetrahydro-2H-pyran-4-yl)benzyl)imidazo[1,2-a]pyridine-3-carboxamide]
> 195.5 °C (dec.) | < 40 |  | CCc1nc2ccc(Cl)cn2c1C(=O)NCc1ccc(C2CCOCC2)cc1 [compound 363, 6-chloro-2-ethyl-N-(4-(tetrahydro-2H-pyran-4-yl)benzyl)imidazo[1,2-a]pyridine-3-carboxamide]
> 156.6 °C (dec.) | < 40 |  | CCc1nc2cc(Cl)ccn2c1C(=O)NCc1ccc(C2CCOCC2)cc1 [compound 364, 7-chloro-2-ethyl-N-(4-(tetrahydro-2H-pyran-4-yl)benzyl)imidazo[1,2-a]pyridine-3-carboxamide]
